Assays:
[1] = molecular target: T1, CFTR ΔF508 mutant (Homo sapiens, UniProt P13569, DEL508-508); assay: YFP-halide influx assay for the CFTR-ΔF508 mutation (CFBE41o- cells); assay type: cell-based; conditions: forskolin 10.67 μM; for EC50: from (1−F/F0) vs concentration plot
T1 construct: expressed in transfected cells; host or cells: CFBE41o- cells, adenoviral transduction
Summary of the method: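 EC50 derived from plotting 1−F/F0 (fluorescence 36 s after iodide injection over pre-injection value) against compound concentration. Cells: CFBE41o- transduced with ΔF508-CFTR and YFP quench reporter, corrected 24 h at 27° C or by a CFTR modulator at 37° C.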

[2] = molecular target: T2, CFTR G551D mutant (Homo sapiens, UniProt P13569, G551D); assay: YFP-halide influx assay for the CFTR-G551D mutation (HEK293 cells); assay type: cell-based; conditions: forskolin 10.67 μM
T2 construct: expressed in transfected cells; host or cells: HEK293 cells, reverse transfection with plasmids
T2 sequence (P13569 whole entry G551D): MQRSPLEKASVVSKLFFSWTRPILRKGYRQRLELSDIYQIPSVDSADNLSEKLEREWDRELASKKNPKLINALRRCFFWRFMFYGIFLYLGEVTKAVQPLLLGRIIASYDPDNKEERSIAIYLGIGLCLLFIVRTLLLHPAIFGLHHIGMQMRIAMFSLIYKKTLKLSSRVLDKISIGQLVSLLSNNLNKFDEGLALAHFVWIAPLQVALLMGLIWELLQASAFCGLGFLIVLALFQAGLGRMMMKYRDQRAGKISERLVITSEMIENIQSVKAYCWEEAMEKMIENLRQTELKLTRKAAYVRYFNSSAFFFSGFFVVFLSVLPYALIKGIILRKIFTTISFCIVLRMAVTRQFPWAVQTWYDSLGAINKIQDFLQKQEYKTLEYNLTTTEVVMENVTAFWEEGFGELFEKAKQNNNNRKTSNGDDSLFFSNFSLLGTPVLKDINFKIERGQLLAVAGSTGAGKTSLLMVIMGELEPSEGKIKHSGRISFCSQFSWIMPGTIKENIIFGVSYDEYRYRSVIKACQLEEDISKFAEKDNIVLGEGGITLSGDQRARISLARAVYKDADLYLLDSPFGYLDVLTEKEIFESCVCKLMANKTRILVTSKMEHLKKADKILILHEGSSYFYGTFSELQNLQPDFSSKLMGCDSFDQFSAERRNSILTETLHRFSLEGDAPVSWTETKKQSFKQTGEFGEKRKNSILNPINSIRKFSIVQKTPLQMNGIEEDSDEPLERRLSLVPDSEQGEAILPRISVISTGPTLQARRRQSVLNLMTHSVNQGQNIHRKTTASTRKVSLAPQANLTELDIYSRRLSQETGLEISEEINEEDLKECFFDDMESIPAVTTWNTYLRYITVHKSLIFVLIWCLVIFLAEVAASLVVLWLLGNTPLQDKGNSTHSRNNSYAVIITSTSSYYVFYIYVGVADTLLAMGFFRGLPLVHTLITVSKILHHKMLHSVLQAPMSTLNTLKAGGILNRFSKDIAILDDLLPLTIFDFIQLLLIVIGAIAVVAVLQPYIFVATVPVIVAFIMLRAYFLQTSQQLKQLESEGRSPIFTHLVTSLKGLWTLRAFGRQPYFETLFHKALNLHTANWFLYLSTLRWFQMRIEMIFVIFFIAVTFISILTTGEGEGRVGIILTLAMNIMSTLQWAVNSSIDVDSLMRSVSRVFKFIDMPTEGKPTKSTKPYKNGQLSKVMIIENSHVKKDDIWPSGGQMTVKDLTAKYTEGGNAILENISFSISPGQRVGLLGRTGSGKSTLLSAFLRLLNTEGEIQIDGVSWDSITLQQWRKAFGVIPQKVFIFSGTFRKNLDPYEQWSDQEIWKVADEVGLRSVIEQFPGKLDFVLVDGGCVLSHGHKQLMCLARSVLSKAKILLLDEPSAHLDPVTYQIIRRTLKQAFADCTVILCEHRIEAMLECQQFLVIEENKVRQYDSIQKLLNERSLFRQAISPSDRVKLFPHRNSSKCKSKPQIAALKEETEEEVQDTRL
Summary of the method: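 Channel opening read as I⁻-driven quenching of a YFP H148Q/I152L/F47L reporter over 7 s post-injection, expressed as 1−F/F0 and fitted against concentration for EC50. Cells were HEK293 co-transfected at seeding with G551D CFTR plus reporter, then grown 24 h at 37 °C, 5% CO2.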

T1 sequence (P13569 with tags, fused parts or gaps DEL508-508): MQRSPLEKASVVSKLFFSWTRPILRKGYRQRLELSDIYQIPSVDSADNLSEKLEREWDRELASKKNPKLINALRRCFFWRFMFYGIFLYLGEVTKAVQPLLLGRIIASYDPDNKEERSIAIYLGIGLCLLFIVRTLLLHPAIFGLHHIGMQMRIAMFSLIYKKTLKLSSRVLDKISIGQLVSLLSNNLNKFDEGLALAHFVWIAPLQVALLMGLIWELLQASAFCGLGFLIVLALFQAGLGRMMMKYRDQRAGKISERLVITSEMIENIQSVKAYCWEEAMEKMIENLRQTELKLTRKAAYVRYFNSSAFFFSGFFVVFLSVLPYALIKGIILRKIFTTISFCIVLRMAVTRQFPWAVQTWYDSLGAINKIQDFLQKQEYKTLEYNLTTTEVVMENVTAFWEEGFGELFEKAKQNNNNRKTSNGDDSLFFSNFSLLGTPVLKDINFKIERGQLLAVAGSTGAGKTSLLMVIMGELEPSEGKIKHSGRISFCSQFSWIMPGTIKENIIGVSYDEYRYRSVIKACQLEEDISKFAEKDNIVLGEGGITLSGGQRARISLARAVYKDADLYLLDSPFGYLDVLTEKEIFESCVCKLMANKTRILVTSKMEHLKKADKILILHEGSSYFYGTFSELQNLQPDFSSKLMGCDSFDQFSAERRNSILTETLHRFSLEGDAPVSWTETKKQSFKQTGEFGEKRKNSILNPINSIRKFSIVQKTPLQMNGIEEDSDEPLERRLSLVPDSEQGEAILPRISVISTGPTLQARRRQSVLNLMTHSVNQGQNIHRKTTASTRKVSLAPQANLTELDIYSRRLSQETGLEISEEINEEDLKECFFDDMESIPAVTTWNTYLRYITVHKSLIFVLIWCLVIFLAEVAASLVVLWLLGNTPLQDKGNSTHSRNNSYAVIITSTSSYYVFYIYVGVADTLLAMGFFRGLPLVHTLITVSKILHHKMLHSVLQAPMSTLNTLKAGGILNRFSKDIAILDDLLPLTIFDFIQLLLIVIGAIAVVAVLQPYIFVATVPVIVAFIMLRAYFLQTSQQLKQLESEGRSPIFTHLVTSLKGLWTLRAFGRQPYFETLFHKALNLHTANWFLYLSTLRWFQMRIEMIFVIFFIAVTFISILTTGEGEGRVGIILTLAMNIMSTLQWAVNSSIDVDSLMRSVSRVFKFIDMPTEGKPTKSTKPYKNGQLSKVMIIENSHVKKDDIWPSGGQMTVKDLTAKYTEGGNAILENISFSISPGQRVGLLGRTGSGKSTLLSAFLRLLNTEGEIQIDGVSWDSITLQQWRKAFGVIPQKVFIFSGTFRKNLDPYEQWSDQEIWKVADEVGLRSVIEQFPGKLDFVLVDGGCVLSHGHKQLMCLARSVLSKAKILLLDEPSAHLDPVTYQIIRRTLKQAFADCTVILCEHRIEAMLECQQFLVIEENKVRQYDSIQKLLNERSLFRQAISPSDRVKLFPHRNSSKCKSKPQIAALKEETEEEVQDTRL

Row | % Activation [1] [%] | EC50 [1] [nM] | % Activation [2] [%] | EC50 [2] [nM] | Compound
1 | 92.4 | 141 | 11.24 | 2000 | COCCS(=O)(=O)c1cc(N)c(C(=O)NC[C@H](C)O)nc1-c1ccc(F)cc1 [Compound 265, 3-amino-6-(4-fluorophenyl)-N-[(2S)-2-hydroxypropyl]-5-[(2-methoxyethyl)sulfonyl]pyridine-2-carboxamide]
2 | 24.0 | > 2000 | 1.0 | > 10000 | Nc1cc(S(=O)(=O)c2ccc(C(F)(F)F)cc2)cnc1C(=O)N1C[C@@H](O)[C@H](O)C1 [Compound 229, (3-amino-5-{[4-(trifluoromethyl)phenyl]sulfonyl}pyridin-2-yl) [(3R,4R)-3,4-dihydroxypyrrolidin-1-yl]methanone]
3 | 112.0 | 10.3 | 39.5 | 1010 | Nc1cc(S(=O)(=O)c2ccc(OC(F)(F)F)cc2)cnc1C(=O)NCC(O)CF (stereo not drawn) [Compound 273, 3-amino-N-(3-fluoro-2-hydroxypropyl)-5-{[4-(trifluoromethoxy)phenyl]sulfonyl}pyridine-2-carboxamide]
4 | 97.0 | 22.6 | 71.9 | 2300 | COCCC(C)(O)CNC(=O)c1ncc(S(=O)(=O)c2ccc(C(F)(F)F)cc2F)cc1N (stereo not drawn) [Compound 163, 3-amino-5-{[2-fluoro-4-(trifluoromethyl)phenyl]sulfonyl}-N-(2-hydroxy-4-methoxy-2-methylbutyl)pyridine-2-carboxamide]
5 | 92.6 | 47.3 | 57.3 | 1270 | Nc1cc(S(=O)(=O)c2ccc(OC(F)(F)F)cc2)cnc1C(=O)N1CCC(F)(F)C1 [Compound 203, (3-amino-5-{[4-(trifluoromethoxy)phenyl]sulfonyl}pyridin-2-yl)(3,3-difluoropyrrolidin-1-yl)methanone]
6 | 101.0 | 10.5 | 64.4 | 1940 | Nc1cc(S(=O)(=O)N2CCC(F)(F)CC2)cnc1C(=O)NCC(O)C(F)(F)F (stereo not drawn) [Compound 84, 3-amino-5-[(4,4-difluoropiperidin-1-yl)sulfonyl]-N-(3,3,3-trifluoro-2-hydroxypropyl)pyridine-2-carboxamide]
7 | 94.5 | 68.4 | 66.0 | 1490 | COCC1(C)CN(C(=O)c2ncc(S(=O)(=O)c3ccc(C(F)(F)F)cc3)cc2N)C1 [Compound 232, (3-amino-5-{[4-(trifluoromethyl)phenyl]sulfonyl}pyridin-2-yl)[3-(methoxymethyl)-3-methylazetidin-1-yl]methanone]
8 | 96.0 | 12.4 | 82.0 | 762 | CCOCC(O)CNC(=O)c1ncc(S(=O)(=O)c2ccc(OC(F)(F)F)cc2)cc1N (stereo not drawn) [Compound 88, 3-amino-N-(3-ethoxy-2-hydroxypropyl)-5-{[4-(trifluoromethoxy)phenyl]sulfonyl}pyridine-2-carboxamide]
9 | 90.8 | 57.5 | 23.5 | > 10000 | Nc1cc(S(=O)(=O)c2ccc(OC(F)(F)F)cc2)cnc1C(=O)NC[C@@H](O)CO [Compound 50, 3-amino-N-[(2R)-2,3-dihydroxypropyl]-5-{[4-(trifluoromethoxy)phenyl]sulfonyl}pyridine-2-carboxamide]
10 | 111.5 | 1 | 90.4 | 453 | Nc1cc(S(=O)(=O)c2ccc(F)cc2)c(Br)nc1C(=O)NC[C@@H](O)C(F)(F)F [Compound 250, 3-amino-6-bromo-5-[(4-fluorophenyl)sulfonyl]-N-[(2R)-3,3,3-trifluoro-2-hydroxypropyl]pyridine-2-carboxamide]

The next lines start with the molecule.

Row | Compound | % Activation [1] [%] | EC50 [1] [nM] | % Activation [2] [%] | EC50 [2] [nM]
11 | Nc1cc(S(=O)(=O)c2ccc(C(F)(F)F)cc2F)cnc1C(=O)N[C@@H]1COCC[C@@H]1O (racemic) [Compound 218, rac-3-amino-5-{[2-fluoro-4-(trifluoromethyl)phenyl]sulfonyl}-N-[(3R,4S)-4-hydroxytetrahydro-2H-pyran-3-yl]pyridine-2-carboxamide] | 105.8 | 44.4 | 43.8 | 1520
12 | Nc1cc(S(=O)(=O)c2ccc(C(F)(F)F)cc2)cnc1C(=O)NCC(O)COCC1CC1 (stereo not drawn) [Compound 131, 3-amino-N-[3-(cyclopropylmethoxy)-2-hydroxypropyl]-5-{[4-(trifluoromethyl)phenyl]sulfonyl}pyridine-2-carboxamide] | 110.2 | 12.8 | 68.6 | 817
13 | CC(C)(C)OCC(O)CNC(=O)c1ncc(S(=O)(=O)c2ccc(C(F)(F)F)cc2F)cc1N (stereo not drawn) [Compound 224, 3-amino-N-(3-tert-butoxy-2-hydroxypropyl)-5-{[2-fluoro-4-(trifluoromethyl)phenyl]sulfonyl}pyridine-2-carboxamide] | 106.0 | 8.1 | 80.6 | 276
14 | COCC(O)CCNC(=O)c1ncc(S(=O)(=O)c2ccc(OC(F)(F)F)cc2)cc1N (stereo not drawn) [Compound 54, 3-amino-N-(3-hydroxy-4-methoxybutyl)-5-{[4-(trifluoromethoxy)phenyl]sulfonyl}pyridine-2-carboxamide] | 89.2 | 72.9 | 62.6 | 1660
15 | Nc1cc(S(=O)(=O)c2ccc(OC(F)(F)F)cc2)cnc1C(=O)NCC(O)C1CCOC1 (stereo not drawn) [Compound 73, 3-amino-N-[2-hydroxy-2-(tetrahydrofuran-3-yl)ethyl]-5-{[4-(trifluoromethoxy)phenyl]sulfonyl}pyridine-2-carboxamide] | 102.0 | 81.4 | 61.0 | > 3330
16 | Nc1cc(S(=O)(=O)c2ccc(OC(F)(F)F)cc2)cnc1C(=O)N1CC2(COC2)C1 [Compound 68, (3-amino-5-{[4-(trifluoromethoxy)phenyl]sulfonyl}pyridin-2-yl)(2-oxa-6-azaspiro[3.3]hept-6-yl)methanone] | 92.0 | 130 | 54.0 | 1820
17 | CC(C)(C)c1ccc(S(=O)(=O)c2cnc(C(=O)NCC(O)C(F)(F)F)c(N)c2)cc1 (stereo not drawn) [Compound 247, 3-amino-5-[(4-tert-butylphenyl)sulfonyl]-N-(3,3,3-trifluoro-2-hydroxypropyl)pyridine-2-carboxamide] | 114.5 | 4.3 | 98.7 | 219
18 | Nc1cc(S(=O)(=O)c2ccc(C(F)(F)F)cc2F)cnc1C(=O)NCCO [Compound 219, 3-amino-5-{[2-fluoro-4-(trifluoromethyl)phenyl]sulfonyl}-N-(2-hydroxyethyl)pyridine-2-carboxamide] | 99.8 | 19.2 | 44.7 | 1050
19 | Nc1cc(S(=O)(=O)c2ccc(OC(F)(F)F)cc2)cnc1C(=O)N1CC2(CCCOC2)C1 [Compound 121, (3-amino-5-{[4-(trifluoromethoxy)phenyl]sulfonyl}pyridin-2-yl)(6-oxa-2-azaspiro[3.5]non-2-yl)methanone] | 102 | 113 | 88.6 | 1330
20 | Nc1cc(S(=O)(=O)c2ccc(C(F)(F)F)cc2)cnc1C(=O)NC[C@H](O)C(F)(F)F [Compound 64, 3-amino-N-[(2S)-3,3,3-trifluoro-2-hydroxypropyl]-5-{[4-(trifluoromethyl)phenyl]sulfonyl}pyridine-2-carboxamide] | 107.0 | 1.3 | 72.5 | 160
21 | Nc1cc(S(=O)(=O)c2ccc(C(F)(F)F)cc2)cnc1C(=O)NC1(CO)CC1 [Compound 292, 3-amino-N-[1-(hydroxymethyl)cyclopropyl]-5-{[4-(trifluoromethyl)phenyl]sulfonyl}pyridine-2-carboxamide] | 72.4 | 263 | 28.5 | > 10000
22 | CC(C)NC(=O)CNC(=O)c1ncc(S(=O)(=O)c2ccc(OC(F)(F)F)cc2F)cc1N [Compound 135, 3-amino-5-{[2-fluoro-4-(trifluoromethoxy)phenyl]sulfonyl}-N-[2-oxo-2-(propan-2-ylamino)ethyl]pyridine-2-carboxamide] | 108.7 | 8.5 | 43.5 | 5770
23 | C[C@@H]1CCCN1S(=O)(=O)c1cnc(C(=O)NCC(O)C(F)(F)F)c(N)c1 (stereo partly drawn) [Compound 179, 3-amino-5-{[(2R)-2-methylpyrrolidin-1-yl]sulfonyl}-N-(3,3,3-trifluoro-2-hydroxypropyl)pyridine-2-carboxamide] | 100.4 | 27.7 | 52.6 | 1350
24 | C[C@H]1CCCN1S(=O)(=O)c1cnc(C(=O)N2CC(C(N)=O)C2)c(N)c1 [Compound 271, 1-[(3-amino-5-{[(2S)-2-methylpyrrolidin-1-yl]sulfonyl}pyridin-2-yl)carbonyl]azetidine-3-carboxamide] | 20.4 | > 2000 | 2.5 | > 10000
